This is an account of results in PubChem BioAssay AID328 (DTP/NCI, 2004).

The test system of the assay is BDF1 mice, P388 leukemia ip, median survival T/C. In words: NCI In Vivo Anticancer Drug Screen. Data for tumor model P388 Leukemia (intraperitoneal) in B6D2F1 (BDF1) mice. Particulars: endpoint: median survival time, higher = longer survival. The essentials:
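T/C = treated-group survival ÷ vehicle-control survival; tumour transplanted into mice before dosing.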

Where [1] appears, read: dose: 50.0 mg/kg/injection, schedule: Q01DX009 (ip), vehicle: saline.
[2] abbreviates: dose: 25.0 mg/kg/injection, schedule: Q01DX009 (ip), vehicle: saline with Tween-80.
Where [3] appears, read: dose: 100.0 mg/kg/injection, schedule: Q01DX009 (ip), vehicle: saline with Tween-80.
[4] abbreviates: dose: 100.0 mg/kg/injection, schedule: Q01DX001 (ip), vehicle: saline sonified.
The mark [5] stands for this setting: dose: 200.0 mg/kg/injection, schedule: Q01DX001 (ip), vehicle: saline sonified.
[6] abbreviates: dose: 50.0 mg/kg/injection, schedule: Q01DX009 (ip), vehicle: saline with Tween-80.
The mark [7] stands for this setting: dose: 200.0 mg/kg/injection, schedule: Q01DX009 (ip), vehicle: saline with Tween-80.
The mark [8] stands for this setting: dose: 400.0 mg/kg/injection, schedule: Q01DX009 (ip), vehicle: saline with Tween-80.

Several values for one entry are separate records, joined by “and”; a condition that tells them apart may be missing. Identical values can stand only once. Inconclusive results and toxic doses are left out.

On to `O=C(NCCCl)N(CCCl)C(=O)Oc1c(Cl)c(Cl)c(Cl)c(Cl)c1Cl`, for which the T/C is, setting by setting: (dose: 50.0 mg/kg/injection, schedule: Q01DX005 (ip), vehicle: Klucel (hydroxypropylcellulose) (HPC)) 97 % of control; (dose: 100.0 mg/kg/injection, schedule: Q01DX005 (ip), vehicle: Klucel (hydroxypropylcellulose) (HPC)) 105 % of control; (dose: 200.0 mg/kg/injection, schedule: Q01DX005 (ip), vehicle: Klucel (hydroxypropylcellulose) (HPC)) 91 % of control.
As for `CC(C)=CC(=O)OCC1CC[N+](C)(C)C1` (stereo not drawn), the T/C by setting is: (dose: 25.0 mg/kg/injection, schedule: Q01DX009 (ip), vehicle: saline) 111 % of control; under setting [1], 100 % of control.
For `CC1=NNC(=O)/C1=C\c1ccc(N(C)C)cc1`, the T/C under setting [2] is 95 % of control and the T/C under setting [3] was 93 % of control.
For the compound `Cc1ccc(NC(=O)Oc2ccc(Br)cc2Br)c([N+](=O)[O-])c1`, under setting [3], the T/C is 122 % of control.
For the compound `O=C1c2ccccc2C(=O)N1C/C(=N/O)c1ccc(C(F)(F)F)cc1`, the T/C is, setting by setting: (dose: 50.0 mg/kg/injection, schedule: Q01DX001 (ip), vehicle: Klucel (hydroxypropylcellulose) (HPC)) 96 % of control; (dose: 100.0 mg/kg/injection, schedule: Q01DX001 (ip), vehicle: Klucel (hydroxypropylcellulose) (HPC)) 96 % of control; (dose: 200.0 mg/kg/injection, schedule: Q01DX001 (ip), vehicle: Klucel (hydroxypropylcellulose) (HPC)) 96 % of control.
Turning to `CCC1(O)CC(OC2CC(N(C)C)C(OC3CC(O)C(OC4CCC(=O)C(C)O4)C(C)O3)C(C)O2)c2c(cc3c(c2O)C(=O)c2c(O)ccc(O)c2C3=O)C1C(=O)OC` (stereo not drawn), the T/C was 181 % of control (dose: 2.88 mg/kg/injection, schedule: Q04DX003 (ip), vehicle: water); 236 % of control (dose: 4.8 mg/kg/injection, schedule: Q04DX003 (ip), vehicle: water); 173 % of control (dose: 1:8.0 dilution, schedule: Q01DX009 (ip), vehicle: saline); 116 % of control (dose: 1:64.0 dilution, schedule: Q01DX009 (ip), vehicle: saline).
Regarding `CC1CC(C)(C)N=C(C(Cc2ccc(Br)cc2)c2ccccc2)O1` (stereo not drawn), the T/C under setting [4] was 95 % of control; the T/C under setting [5] is 110 % of control; the T/C (dose: 400.0 mg/kg/injection, schedule: Q01DX001 (ip), vehicle: saline sonified) was 110 % of control.
Turning to `CC(C(=O)O)c1ccccc1` (stereo not drawn), the T/C by setting is: (dose: 50.0 mg/kg/injection, schedule: Q01DX009 (ip), vehicle: other) 101 % of control; (dose: 100.0 mg/kg/injection, schedule: Q01DX009 (ip), vehicle: other) 106 % of control; (dose: 200.0 mg/kg/injection, schedule: Q01DX009 (ip), vehicle: other) 110 % of control.
For `CC(=O)Nc1cscc1NC(C)=O`, the T/C by setting is: under setting [6], 110 % of control and 123 % of control; under setting [3], 119 % of control and 123 % of control; under setting [7], 123 % of control.
In the case of `COc1ccc(C2NC(=O)NC2=O)cc1OC` (stereo not drawn), the T/C (dose: 50.0 mg/kg/injection, schedule: Q01DX001 (ip), vehicle: saline sonified) is 100 % of control; the T/C under setting [4] was 100 % of control; the T/C under setting [5] is 100 % of control.
For `CC(C)CC(=O)CC1(C)CCC(c2ccoc2)O1` (stereo not drawn), the T/C runs as follows: under setting [2], 96 % of control and 100 % of control; under setting [6], 97 % of control and 105 % of control; under setting [3], 103 % of control and 110 % of control; under setting [7], 117 % of control.
With `Cc1ccc(C2NC(=O)c3ccccc3N2)c(C)c1` (stereo not drawn), the T/C was 110 % of control (dose: 100.0 mg/kg/injection, schedule: Q01DX009 (ip), vehicle: Klucel (hydroxypropylcellulose) (HPC)); 110 % of control (dose: 200.0 mg/kg/injection, schedule: Q01DX009 (ip), vehicle: Klucel (hydroxypropylcellulose) (HPC)); 120 % of control (dose: 400.0 mg/kg/injection, schedule: Q01DX009 (ip), vehicle: Klucel (hydroxypropylcellulose) (HPC)).
Turning to `Cc1[nH]c(N)nc(=S)c1CCC(=O)Nc1ccc(C(=O)NC(CCC(=O)O)C(=O)O)cc1` (stereo not drawn), the T/C is 91 % of control under setting [6], 99 % of control under setting [3], 101 % of control under setting [7] and 106 % of control under setting [8].
As to `Nc1ncnc2c1nnn2C1CC(CO)C(O)C1O` (stereo not drawn), the T/C was 163 % of control (dose: 67.0 mg/kg/injection, schedule: Q01DX009 (ip), vehicle: saline with Tween-80); 153 % of control (dose: 75.0 mg/kg/injection, schedule: Q01DX009 (ip), vehicle: saline with Tween-80); 168 % of control under setting [3].
Regarding `N#C/C(=C\c1cc(Cl)cc(Cl)c1O)c1nc2ccccc2[nH]1`, the T/C under setting [6] was 93 % of control and the T/C under setting [3] was 93 % of control.
Consider `CCOC(=O)C(Cc1ccc(N(CCCl)CCCl)cc1)NC(=O)C(CC(C)C)NC(C)=O` (stereo not drawn), for which the T/C (dose: 5.0 mg/kg/injection, schedule: Q04DX003 (ip), vehicle: water) is 114 % of control; the T/C (dose: 10.0 mg/kg/injection, schedule: Q04DX003 (ip), vehicle: water) is 114 % of control; the T/C (dose: 40.0 mg/kg/injection, schedule: Q04DX003 (ip), vehicle: water) is 121 % of control.
As for `C/C=C/C=N/NC(=S)NC`, the T/C (dose: 6.75 mg/kg/injection, schedule: Q01DX009 (ip), vehicle: saline with Tween-80) was 109 % of control; the T/C (dose: 13.5 mg/kg/injection, schedule: Q01DX009 (ip), vehicle: saline with Tween-80) was 91 % of control; the T/C (dose: 27.0 mg/kg/injection, schedule: Q01DX009 (ip), vehicle: saline with Tween-80) was 86 % of control.
Consider `O=C(O)c1ccccc1N=Cc1ccccc1O`, for which the T/C was 109 % of control (dose: 176.0 mg/kg/injection, schedule: Q04DX003 (ip), vehicle: saline with Tween-80); 109 % of control (dose: 264.0 mg/kg/injection, schedule: Q04DX003 (ip), vehicle: saline with Tween-80); 109 % of control (dose: 400.0 mg/kg/injection, schedule: Q04DX003 (ip), vehicle: saline with Tween-80).
As for `O=S(=O)(O)O.[Ga]`, the T/C reads like this: (dose: 8.25 mg/kg/injection, schedule: Q01DX009 (ip), vehicle: saline sonified) 100 % of control; (dose: 50.0 mg/kg/injection, schedule: Q04DX003 (ip), vehicle: saline with Tween-80) 90 % of control; (dose: 100.0 mg/kg/injection, schedule: Q04DX003 (ip), vehicle: saline with Tween-80) 95 % of control; (dose: 134.0 mg/kg/injection, schedule: Q04DX003 (ip), vehicle: saline with Tween-80) 92 % of control; (dose: 200.0 mg/kg/injection, schedule: Q04DX003 (ip), vehicle: saline with Tween-80) 123 % of control; (dose: 300.0 mg/kg/injection, schedule: Q04DX003 (ip), vehicle: saline with Tween-80) 96 % of control.
In the case of `CCCCCCC(=O)/C=C/c1ccccc1Cl`, the T/C by setting is: under setting [3], 102 % of control; under setting [7], 118 % of control; under setting [8], 93 % of control.
With `CCCCCCCCCCCCCCCCNc1cccc2ccccc12`, the T/C runs as follows: (dose: 100.0 mg/kg/injection, schedule: Q04DX003 (ip), vehicle: saline sonified) 86 % of control; (dose: 200.0 mg/kg/injection, schedule: Q04DX003 (ip), vehicle: saline sonified) 104 % of control; (dose: 400.0 mg/kg/injection, schedule: Q04DX003 (ip), vehicle: saline sonified) 95 % of control.
Regarding `O=C(O)c1ccc2cc(O)ccc2c1`, the T/C by setting is: (dose: 50.0 mg/kg/injection, schedule: Q01DX001 (ip), vehicle: saline with Tween-80) 100 % of control; under setting [1], 116 % of control; (dose: 50.0 mg/kg/injection, schedule: Q04DX003 (ip), vehicle: saline) 109 % of control; (dose: 100.0 mg/kg/injection, schedule: Q01DX001 (ip), vehicle: saline with Tween-80) 113 % of control; (dose: 100.0 mg/kg/injection, schedule: Q01DX009 (ip), vehicle: saline) 116 % of control; (dose: 100.0 mg/kg/injection, schedule: Q04DX003 (ip), vehicle: saline) 109 % of control. Also, the T/C reads like this: (dose: 200.0 mg/kg/injection, schedule: Q01DX001 (ip), vehicle: saline with Tween-80) 100 % of control; (dose: 200.0 mg/kg/injection, schedule: Q01DX009 (ip), vehicle: saline) 104 % of control; (dose: 200.0 mg/kg/injection, schedule: Q04DX003 (ip), vehicle: saline) 100 % of control.
